Laboratory results reported in US20040024024A1, “Aromatic sulfone hydroxamates and their use as protease inhibitors” (priority 2001, published 2004).
Counter-ions that a name gives are not always drawn.

Tests used:
Format in all cases: biochemical
Human recombinant MMP-2 [1] = biological target: T1, Human recombinant MMP-2 (Homo sapiens, UniProt P08253); assay: In vitro MMP inhibition, IC50 determination (fluorogenic substrate I)
T1 construct: made in house; host or cells: MMP-2-transfected p2AHT2 cells
T1 sequence (P08253 110-660): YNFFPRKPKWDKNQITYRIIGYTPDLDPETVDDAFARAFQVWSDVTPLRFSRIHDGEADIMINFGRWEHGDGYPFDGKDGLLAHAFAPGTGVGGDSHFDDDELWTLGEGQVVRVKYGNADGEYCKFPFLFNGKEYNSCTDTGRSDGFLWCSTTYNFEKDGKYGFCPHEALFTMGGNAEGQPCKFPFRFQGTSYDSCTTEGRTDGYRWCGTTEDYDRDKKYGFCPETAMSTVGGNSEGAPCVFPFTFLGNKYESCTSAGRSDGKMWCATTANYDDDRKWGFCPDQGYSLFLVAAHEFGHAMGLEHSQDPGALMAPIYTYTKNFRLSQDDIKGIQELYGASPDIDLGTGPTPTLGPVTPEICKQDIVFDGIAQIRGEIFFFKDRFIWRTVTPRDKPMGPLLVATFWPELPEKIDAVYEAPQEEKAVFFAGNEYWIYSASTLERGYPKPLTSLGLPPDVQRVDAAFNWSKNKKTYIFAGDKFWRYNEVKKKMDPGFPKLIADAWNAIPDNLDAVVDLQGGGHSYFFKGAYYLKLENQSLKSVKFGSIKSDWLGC
How it was run: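 APMA- or trypsin-activated recombinant MMP-2 was incubated at room temperature with serial inhibitor dilutions in Tris buffer pH 7.5 (100 mM NaCl, 10 mM CaCl2, 0.05% Brij), with DMSO from 1% stocks, and 4 μM substrate I. Cleavage was read by fluorescence at 328/415 nm; IC50 was taken from the loss of fluorescence versus inhibitor concentration.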

Human recombinant MMP-9 = biological target: T2, Human recombinant MMP-9 (Homo sapiens, UniProt P14780); assay: as above
T2 construct: made in house; host or cells: MMP-9-transfected HT1080 cells (spent media)
How it was run: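 MMP-9 proenzyme purified from transfected HT1080 cell media, activated with APMA or trypsin. Compound dilutions in pH 7.5 Tris/NaCl/CaCl2 buffer with 0.05% polyoxyethylene 23 lauryl ether, incubated at room temperature with 4 μM MCA/Dpa substrate I. IC50 from fluorescence loss (ex 328, em 415 nm) versus inhibitor concentration.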

Human recombinant MMP-2 [2] = biological target: T1, Human recombinant MMP-2; assay: In vitro MMP inhibition, Ki determination (fluorogenic substrate II)
Experimental: Several hydroxamates and salts thereof were analyzed in in vitro assays to determine their ability to inhibit the MMP cleavage of peptide substrates. Inhibition (Ki) and IC50 constants were calculated from the assayed hydroxamate-MMP interactions.
Human recombinant MMP-1, MMP-2, MMP-9, MMP-13, and MMP-14 were used in this assay. All enzymes were prepared in Assignee's laboratories following usual laboratory procedures. Protocols for the preparation and use of these enzymes are available in the scientific literature. See, e.g., Enzyme Nomenclature (Academic Press, San Diego, Calif., 1992) (and the citations therein). See also, Frije et al., J. Biol. Chem., 26(24), 16766-73 (1994).
The MMP-2 proenzyme was purified by gelatin Sepharose chromatography from MMP-2-transfected p2AHT2 cells provided by Dr. Gregory Goldberg of Washington University (St. Louis, Mo.).
All MMPs were activated using 4-aminophenylmercuric acetate (“APMA”, Sigma Chemical, St. Louis, Mo.) or trypsin. MMP-9 also was activated using human recombinant MMP-3 (purified in Assignee's laboratory following standard cloning and purification techniques).
Two fluorogenic, methoxycoumarin-containing polypeptide substrates were used in the MMP inhibition assays:
MCA-ArgProLeuGlyLeuDpaAlaArgGluArgNH2 (II)
Here, “Dpa” is 3-(2,4-dinitrophenyl)-L-2,3-diaminopropionyl group, and “MCA” is 7-methoxycoumarin-4-yl acetyl. Substrate (I) was purchased from Baychem (Redwood City, Calif.), and substrate II was prepared Assignee's laboratory. Substrate I was used in the IC50 determination assays, while substrate II was used in the Ki determination assays. In the absence of MMP inhibitory activity, either substrate is cleaved at the Gly-Leu peptide bond. This cleavage separates the highly fluorogenic peptide from the 2,4-dinitrophenyl quencher, thus resulting in increase of fluorescent intensity.
The stock solutions of the assayed hydroxamates (or salts thereof) were prepared in 1% dimethyl sulfoxide (DMSO). These stock solutions were diluted in Buffer A (100 mM Tris-HCl, 100 mM NaCl, 10 mM CaCl2, 0.05% polyoxyethylene 23 lauryl ether, pH 7.5) to obtain solutions with different hydroxamate concentrations, i.e., assay solutions with different concentrations of the assayed MMP inhibitory compound. The experiment controls contained the same amount of Buffer A/DMSO as the assayed sample, but contained no hydroxamate (or salt thereof).
The assays from which the Ki determinations were made were performed as follows. The assayed hydroxamate samples were incubated in separate wells of untreated white polystyrene plates (Nunc Nalgene International, Rochester, N.Y.), and analyzed on a Tecan SpectraFlour Plus plate reader. The excitation wavelength was 330 nm, and the emission wavelength—420 nm. All samples (assayed hydroxamates and controls) were incubated in separate plate wells at room temperature for 1 hr in the presence of 4 μM of MMP substrate (II). In the absence of MMP inhibitory activity, substrate II was cleaved at the Gly-Leu bond resulting in an increase of relative fluorescence. Inhibition was observed as a reduced rate of this increase in relative fluorescence. The various hydroxamates were analyzed using a single low enzyme concentration with a single substrate concentration fixed at or below the Km. This protocol is a modification of method by Knight et al., FEBS Lett., 296(3), 263-266 (1992). Apparent inhibitory constants were determined by non-linear regression of reaction velocity as a function of inhibitor and enzyme concentration using Morrison's equation, as described by Kuzmic, Anal. Biochem. 286, 45-50 (2000). […] Since the substrate concentration was chosen to be at or below the Km, the apparent Ki's from this analysis were reported as Ki's without correction for the influence of substrate.

[3] = substrate (I) 4 μM, room temperature, values not in parenthesis
[4] = substrate (II) 4 μM, 1 hr room temperature, apparent Ki, values in parenthesis

T2 sequence (P14780 107-707 limits assumed): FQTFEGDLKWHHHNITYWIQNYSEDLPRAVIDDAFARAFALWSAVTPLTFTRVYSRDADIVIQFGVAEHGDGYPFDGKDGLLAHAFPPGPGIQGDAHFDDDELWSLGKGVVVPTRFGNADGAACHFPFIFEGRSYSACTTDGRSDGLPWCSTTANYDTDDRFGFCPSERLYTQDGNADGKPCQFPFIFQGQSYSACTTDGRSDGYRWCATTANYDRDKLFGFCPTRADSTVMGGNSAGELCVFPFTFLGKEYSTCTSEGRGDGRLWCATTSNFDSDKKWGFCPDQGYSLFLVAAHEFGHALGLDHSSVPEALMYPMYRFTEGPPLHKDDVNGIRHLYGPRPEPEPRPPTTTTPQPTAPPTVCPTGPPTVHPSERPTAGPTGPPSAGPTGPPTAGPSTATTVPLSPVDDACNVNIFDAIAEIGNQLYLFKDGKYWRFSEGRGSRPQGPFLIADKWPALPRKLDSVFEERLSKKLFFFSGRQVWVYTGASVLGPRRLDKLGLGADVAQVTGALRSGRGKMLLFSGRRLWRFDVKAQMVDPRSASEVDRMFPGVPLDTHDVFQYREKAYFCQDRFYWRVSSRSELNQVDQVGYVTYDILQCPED

| Structure (SMILES) | IC50 (Human recombinant MMP-2 [1]; value outside parenthesis) | IC50 (Human recombinant MMP-9; value outside parenthesis) | Ki (Human recombinant MMP-2 [2]; value in parenthesis) | further results |
| --- | --- | --- | --- | --- |
| CCc1ccccc1-c1noc(CCCOc2ccc(S(=O)(=O)C3(C(=O)NO)CCN(CCOC)CC3)cc2)n1 [Example 155] | 13.8 nM | 1170 nM | 37.9 nM |  |
| O=C(NO)C1(S(=O)(=O)c2ccc(OCCCc3cccc(-c4ccccc4F)c3)cc2)CCOCC1 [Example 163] | 1370 nM | 2880 nM | 1010 nM |  |
| O=C(Cc1csc2ccccc12)NCCOc1ccc(S(=O)(=O)C2(C(=O)NO)CCOCC2)cc1 [Example 596] |  |  |  | IC50 (Human recombinant MMP-2 [1]; value outside parentheses): 10.3 nM; IC50 (Human recombinant MMP-9; value outside parentheses): 194 nM; Ki (Human recombinant MMP-2 [2]; value in parentheses): 11.2 nM |
| O=C(NO)C1(S(=O)(=O)c2ccc(OCCCn3nnc(-c4ccc(OC(F)(F)F)cc4)n3)cc2)CCN(C2CC2)CC1 [Example 49] |  |  |  | IC50 (Human recombinant MMP-2 [1]; [3]): 274 nM; IC50 (Human recombinant MMP-9; [3]): 4060 nM; Ki (Human recombinant MMP-2 [2]; [4]): 440 nM |
| Cc1ccc(-c2cccc(CCOc3ccc(S(=O)(=O)C4(C(=O)NO)CCOCC4)cc3)c2)cc1 [Example 127] | 1380 nM | > 10000 nM | 2160 nM |  |
| O=C(CCCOc1ccc(S(=O)(=O)C2(C(=O)NO)CCOCC2)cc1)Nc1cccc(OC(F)(F)F)c1 [Example 181] | 13.9 nM | 26.4 nM | 15.8 nM |  |
| O=C(NO)C1(S(=O)(=O)c2ccc(OCCCc3cccc(-c4cccc(F)c4)c3)cc2)CCOCC1 [Example 161] | 1000 nM | 2630 nM | 1760 nM |  |
| O=C(NO)C1(S(=O)(=O)c2ccc(OCCCc3nc(-c4ccc(OC(F)(F)F)cc4)no3)cc2)CCN(C2CC2)CC1 [Example 51, 1-cyclopropyl-N-hydroxy-4-{[4-(3-{3-[4-(trifluoromethoxy)phenyl]-1,2,4-oxadiazol-5-yl}propoxy)phenyl]sulfonyl}piperidine-4-carboxamide Hydrochloride] |  |  |  | IC50 (Human recombinant MMP-2 [1]; [3]): 252 nM; IC50 (Human recombinant MMP-9; [3]): 7980 nM; Ki (Human recombinant MMP-2 [2]; [4]): 93.7 nM |
| Cc1cc(NC(=O)CCCOc2ccc(S(=O)(=O)C3(C(=O)NO)CCOCC3)cc2)ccc1OC(C)C [Example 290] | 590 nM | > 10000 nM | 1010 nM |  |
| COc1ccc(/C(C#N)=C/CCCOc2ccc(S(=O)(=O)C3(C(=O)NO)CCN(C4CC4)CC3)cc2)cc1 [Example 233] | 25.5 nM | 832 nM | 60.2 nM |  |
| O=C(NO)C1(S(=O)(=O)c2ccc(OCCCc3cncc(-c4ccccc4)c3)cc2)CCOCC1 [Example 524] |  |  |  | IC50 (Human recombinant MMP-2 [1]; value outside parentheses): 38.3 nM; IC50 (Human recombinant MMP-9; value outside parentheses): 1840 nM; Ki (Human recombinant MMP-2 [2]; value in parentheses): 51.8 nM |
| COCCN1CCC(C(=O)NO)(S(=O)(=O)c2ccc(OCCCc3nc(-c4ccc(CC(C)C)cc4)no3)cc2)CC1 [Example 175] | 438 nM | 7300 nM | 872 nM |  |
| O=C(NO)C1(S(=O)(=O)c2ccc(OCCc3cccc(-c4cccnc4)c3)cc2)CCOCC1 [Example 125] | 27.3 nM | 963 nM | 51.3 nM |  |
| O=C(NO)C1(S(=O)(=O)c2ccc(OCCCc3cccc(-c4ccc(F)cc4)c3)cc2)CCN(C2CC2)CC1 [Example 139] | 208 nM | 4510 nM | 1410 nM |  |
| O=C(NO)C1(S(=O)(=O)c2ccc(OCCCc3cccc(-c4ccc5c(c4)OCO5)c3)cc2)CCOCC1 [Example 628] |  |  |  | IC50 (Human recombinant MMP-2 [1]; value outside parentheses): 1700 nM; IC50 (Human recombinant MMP-9; value outside parentheses): 1750 nM; Ki (Human recombinant MMP-2 [2]; value in parentheses): 2750 nM |
| O=C(NO)C1(S(=O)(=O)c2ccc(OCCCc3cccc(Cc4ccccc4)c3)cc2)CCOCC1 [Example 98] | 316 nM | 2420 nM | 625 nM |  |
| O=C(NO)C1(S(=O)(=O)c2ccc(OCCc3cccc(-c4ccccn4)c3)cc2)CCOCC1 [Example 40] |  |  |  | IC50 (Human recombinant MMP-2 [1]; [3]): 112 nM; IC50 (Human recombinant MMP-9; [3]): 413 nM; Ki (Human recombinant MMP-2 [2]; [4]): 216 nM |
| CC(C)c1cccc(NC(=O)CCCOc2ccc(S(=O)(=O)C3(C(=O)NO)CCOCC3)cc2)c1 [Example 182] | 33.1 nM | 62.1 nM | 34.3 nM |  |
| O=C(CCCOc1ccc(S(=O)(=O)C2(C(=O)NO)CCOCC2)cc1)Nc1ccc(OC(F)(F)F)cc1 [Example 250] | 2.5 nM | 22.5 nM | 3.12 nM |  |
| O=C(CCCc1ccc(S(=O)(=O)C2(C(=O)NO)CCOCC2)cc1)c1cccc(-c2ccccc2)c1 [Example 219] | 60.8 nM | 77.7 nM | 105 nM |  |
| O=C(NO)C1(S(=O)(=O)c2ccc(OCCCc3cc(-c4ccc(F)cc4F)cs3)cc2)CCOCC1 [Example 587] |  |  |  | IC50 (Human recombinant MMP-2 [1]; value outside parentheses): 81.7 nM; IC50 (Human recombinant MMP-9; value outside parentheses): 1370 nM; Ki (Human recombinant MMP-2 [2]; value in parentheses): 125 nM |
| O=C(NO)C1(S(=O)(=O)c2ccc(OCCCc3cccc(-c4cccnc4)c3)cc2)CCOCC1 [Example 150] | 136 nM | 530 nM | 159 nM |  |
| Cc1cc(OC(F)(F)F)ccc1NC(=O)CCCOc1ccc(S(=O)(=O)C2(C(=O)NO)CCOCC2)cc1 [Example 229] | 12.2 nM | 294 nM | 10.4 nM |  |
| O=C(NO)C1(S(=O)(=O)c2ccc(OCCCn3nnc(-c4ccc(OC(F)(F)F)cc4)n3)cc2)CCN(CC2CC2)CC1 [Example 53] |  |  |  | IC50 (Human recombinant MMP-2 [1]; [3]): 384 nM; IC50 (Human recombinant MMP-9; [3]): 75.5 nM; Ki (Human recombinant MMP-2 [2]; [4]): 697 nM |
| O=C(NO)C1(S(=O)(=O)c2ccc(OCCc3cccc(-c4ccncc4)c3)cc2)CCOCC1 [Example 113] | 20.3 nM | 1980 nM | 42.3 nM |  |
